Data taken from patent US6376753B1, “PURIFIED CYTOCHROME P450 POLYPEPTIDE CYP76B1 FROM HELIANTHUS TUBEROSUS AND ITS APPLICATIONS AS BIOCATALYST IN PARTICULAR FOR THE DEGRADATION OF ENVIRONMENTAL POLLUTANTS AND FOR ALTERING THE RESISTANCE OF PLANTS SENSITIVE TO PHENYLUREA FAMILY OF HERBICIDES” (priority 1997, dated 2002).
Where two headings read alike, the source gives them in different places.

Columns and labels:
[1] = tested on: 7-methoxyresorufin O-dealkylase activity; assay: Induction of 7-methoxyresorufin O-demethylase activity in tuber slices; type: cell-based, Helianthus tuberosus; settings: 48 hours of treatment
Experimental: Slices of dormant tuber of Helianthus tuberosus were placed under survival conditions in oxygenated distilled water and stirred with a current of compressed air in the presence of various metals or organic compounds (effectors).
A control was performed with DMSO alone.

CYP76B1 [2] = target: T1, CYP76B1 (Helianthus tuberosus, UniProt O23976); assay: CYP76B1-dependent metabolism (O-/N-dealkylation) in microsomes of transformed yeast; settings: for Activity: + NADPH; for turnover of the dealkylation: for phenylureas first dealkylation; for conversion / dealkylation by CYP76B1: transformed yeast microsomes, NADPH; for metabolite detection for endogenous molecules: transformed WAT11 yeast microsomes
T1 sequence (O23976 1-490): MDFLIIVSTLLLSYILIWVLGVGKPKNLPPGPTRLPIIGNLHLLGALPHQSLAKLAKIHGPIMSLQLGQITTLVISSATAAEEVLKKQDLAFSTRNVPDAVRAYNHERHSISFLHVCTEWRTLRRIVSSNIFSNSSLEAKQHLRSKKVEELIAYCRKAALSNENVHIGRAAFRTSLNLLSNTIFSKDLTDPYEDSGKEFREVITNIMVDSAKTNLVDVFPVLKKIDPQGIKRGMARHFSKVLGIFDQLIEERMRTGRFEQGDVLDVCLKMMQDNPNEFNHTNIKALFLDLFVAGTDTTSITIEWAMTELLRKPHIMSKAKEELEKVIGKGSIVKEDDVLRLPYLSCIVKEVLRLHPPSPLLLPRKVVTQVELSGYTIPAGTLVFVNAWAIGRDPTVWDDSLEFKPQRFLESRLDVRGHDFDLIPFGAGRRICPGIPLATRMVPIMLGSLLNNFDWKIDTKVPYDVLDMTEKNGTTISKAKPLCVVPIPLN
Experimental: BamHI and EcoRI sites were introduced by PCR just upstream of the ATG and downstream of the stop codon of the CYP76B1 coding sequence, using the primers 5′-[…] (sense) 5′-[…] (reverse) (SEQ ID NO 3 and SEQ ID NO 4 respectively). The PCR mixture was preheated for 2 min at 92° C. before addition of 1 unit of Pfu DNA polymerase (Stratagene). After 3 min additional heating at 92° C., 30 cycles of amplification were carried out as follows 1 min denaturation at 92° C., 1 min annealing at 52° C., 2 min extension at 72° C. The reaction was completed by 10 min extension at 72° C. After BamHI/EcoRI digestion, the 1470 bp coding sequence was inserted into the vector pYeDP60 (32). Transformation of Saccharomyces cerevisiae W(R), WAT11 and WAT21, and yeast growth were conducted according to Pompon et al. (32). Yeast microsomes were prepared as described in Pierrel et al. (33) with addition of 1% SAB, 2 mM β-mercaptoethanol, 10 mM sodium disulfite and 1 mM PMSF to the extraction buffer. When indicated, 0.5 mM δ-aminolevulinic acid methyl ester (Sigma) was added to the induction medium, or cells were stored at 4° C. for 24 h before preparation of the microsomes.
(§1) Spectrophotometric measurements of P450 content and substrate binding were performed as in (Gabriac et al., 1991) and SDS-PAGE was performed as in Gabriac et al. (34). Gels were stained with Coomassie Blue R-250. Alkoxycoumarins and alkoxyresorufins O-dealkylation was measured by fluorometry (Werck-Reichhart et al., 1990). The data are means ± S.D. of triplicates.
The conversion of other molecules was assayed by TLC or HPLC analysis of polar metabolites formed from radiolabeled compounds (Cabello-Hurtado et al., 1998a, b). NADPH-cytochrome c reductase was assayed according to (Benveniste et al., 1986). Kinetic data were fitted using the nonlinear regression program […] (Duggleby, 1984).
10 μL of non-immune serum or of serum raised against purified ECOD fraction were preincubated 2 min at room temperature with 10 μL of microsomes before addition of the reaction mix. n.d.: not detectable.
Conversion was estimated from the sum of the two polar metabolites detected after TLC analysis. Data are means + S.D. of two to four determinations. n.d.: not detected.
CYP76B1 concentrations in the MCOD, ECOD, MROD and EROD fluorometric assays were 1.5 nM or 2.1 nM, depending on the coexpressed ATR1 or yeast reductases. In the CTUDM assays, CYP76B1 concentrations were 1.7 nM (ATR1) and 8 nM (yeast), respectively. It was 12 nM for the determination of the catalytic parameters of monodemethyl-CTUDM, and 1.7 nM (ATR1) or 20 nM (yeast) in the IPUDM assays. Products were quantified by direct TLC analysis of 100 μL of the acidified incubation medium after 6 min incubation at 30° C. for the CTUDM and IPUDM assays, and after 9 min incubation for the monodemethyl-CTUDM.

CYP76B1 [3] = target: T1, CYP76B1; assay: biochemical; settings: for ΔAmax × 10^−3: at saturating ligand concentration
Experimental: as §1
The binding of substrates into the catalytic site of a P450 usually induces a shift of its maximum of absorbance, redox potential and iron spin state (Raag and Poulos, 1989) resulting from the displacement of the water sixth ligand of the heme iron. It is easily detected by differential spectrophotometry as a so-called type I spectrum with a peak at 390 nm and a trough at 420 nm (Jefcoate, 1978). The variation of the differential absorbance ΔA390-420 versus substrate concentration allows the calculation of an apparent dissociation constant (Ks). A high ΔAmax induced by the ligand is usually an indication of correct positioning for catalysis.
CYP76B1 was 60 nM in the assays. Difference spectra were recorded after the addition of increasing concentrations of ligands to the sample cuvette. An equal volume of the herbicide solvent (DMSO) was added to the reference. Ks and ΔAmax at saturating ligand concentration were calculated from the double-reciprocal plots of ΔA(390-420 nm) versus substrate concentrations.

[4] = coexpressed reductase ATR1 (WAT11)
[5] = coexpressed yeast reductase (W(R))
[6] = read-out: KS (apparent dissociation constant), CYP76B1 60 nM, ΔA(390-420 nm) double-reciprocal plots

## Cc1ccc2cc3c(ccc4ccccc43)c3c2c1CC3 [3-methylcholanthrene]
[1]
  induction of 7-methoxyresorufin O-dealkylase activity: very strongly induced

## CCOc1ccc2nc3ccc(=O)cc-3oc2c1 [7-ethoxyresorufin]
CYP76B1 [2]; W(R) strain
  Activity: 5.1 pkat mg-1 protein
  turnover of the dealkylation: 6 min⁻¹
CYP76B1 [2]; WAT11 strain
  Activity: 11.6 pkat mg-1 protein
  turnover of the dealkylation: 22 min⁻¹
CYP76B1 [2]; [4]
  Kcat: 0.467 s⁻¹
  Km: 0.17 µM

## COc1ccc2ccc(=O)oc2c1 [7-methoxycoumarin, 7-Methoxycoumarin]
CYP76B1 [2]; W(R) strain
  Activity: 10.9 pkat mg-1 protein
  turnover of the dealkylation: 13 min⁻¹
CYP76B1 [2]; WAT11 strain
  Activity: 16.4 pkat mg-1 protein
  turnover of the dealkylation: 31 min⁻¹

## COc1ccc2nc3ccc(=O)cc-3oc2c1 [7-methoxyresorufin]
CYP76B1 [2]; W(R) strain
  Activity: 12.6 pkat mg-1 protein
  turnover of the dealkylation: 15 min⁻¹
CYP76B1 [2]; WAT11 strain
  Activity: 18.6 pkat mg-1 protein
  turnover of the dealkylation: 41 min⁻¹
CYP76B1 [2]; [4]
  Kcat: 0.683 s⁻¹
  Km: 0.17 µM
CYP76B1 [2]; coexpressed reductase ATR2
  Kcat: 0.717 s⁻¹
  Km: 0.185 µM
CYP76B1 [2]; [5]
  Kcat: 0.25 s⁻¹
  Km: 0.23 µM

## COc1c2occc2cc2ccc(=O)oc12 [8-methoxypsoralen]
[1]
  induction of 7-methoxyresorufin O-dealkylase activity: very strongly induced

## CON(C)C(=O)Nc1ccc(Br)c(Cl)c1 [Chlorbromuron]
CYP76B1 [2]
  conversion / dealkylation by CYP76B1: dealkylates
CYP76B1 [3]
  Kd: 5.3 µM
CYP76B1 [3]; CYP76B1 60 nM
  ΔAmax × 10^−3: 6.7 × 10^−3

## CC(C)c1ccc(NC(=O)N(C)C)cc1 [Isoproturon, N-(4-isopropylphenyl)-N′,N′-dimethylurea]
CYP76B1 [2]; W(R) strain
  Activity: 128 pkat mg-1 protein
  turnover of the dealkylation: 40 min⁻¹
CYP76B1 [2]; WAT11 strain
  Activity: 475 pkat mg-1 protein
  turnover of the dealkylation: 147 min⁻¹
CYP76B1 [2]; [4]
  Kcat: 2.45 s⁻¹
CYP76B1 [2]; [5]
  Kcat: 0.667 s⁻¹
CYP76B1 [3]
  Kd: 55 µM
CYP76B1 [3]; CYP76B1 60 nM
  ΔAmax × 10^−3: 8.2 × 10^−3

## CON(C)C(=O)Nc1ccc(Br)cc1 [Metobromuron]
CYP76B1 [3]; [6]
  Kd: 6.2 µM

## CON(C)C(=O)Nc1ccc(Cl)cc1 [Monolinuron]
CYP76B1 [2]
  conversion / dealkylation by CYP76B1: dealkylates
CYP76B1 [3]
  Kd: 4.8 µM

## CC1=CC(=O)CC(C)(C)C1(O)/C=C/C(C)=C\C(=O)O (stereo not shown) [abcisic acid]
CYP76B1 [2]
  metabolite detection for endogenous molecules: No metabolite

## c1ccc2c(c1)cc1ccc3cccc4ccc2c1c34 [benzo(a)pyrene]
[1]
  induction of 7-methoxyresorufin O-dealkylase activity: very strongly induced

## O=C(O)c1ccccc1 [benzoate, Benzoic acid]
CYP76B1 [2]
  metabolite detection for endogenous molecules: No metabolite

## CCCCCCCCCC(=O)O [capric, capric acid]
CYP76B1 [2]
  metabolite detection for endogenous molecules: No metabolite

## O=C(O)/C=C/c1ccccc1 [cinnamate, trans-Cinnamic acid]
CYP76B1 [2]
  metabolite detection for endogenous molecules: No metabolite

## CCCCC(CC)COC(=O)c1ccccc1C(=O)OCC(CC)CCCC (stereo not shown) [diethylhexylphthalate]
[1]
  induction of 7-methoxyresorufin O-dealkylase activity: very strongly induced

## COc1cc(/C=C/C(=O)O)ccc1O [ferulate, ferulic acid]
CYP76B1 [2]
  metabolite detection for endogenous molecules: No metabolite

## COc1cc2oc(=O)ccc2cc1O [isoscopoletin]
CYP76B1 [2]
  metabolite detection for endogenous molecules: No metabolite

## CCCCCCCCCCCC(=O)O [lauric, lauric acid]
CYP76B1 [2]
  metabolite detection for endogenous molecules: No metabolite

## Cl[C@H]1[C@H](Cl)[C@@H](Cl)[C@@H](Cl)[C@H](Cl)[C@H]1Cl [lindane]
[1]
  induction of 7-methoxyresorufin O-dealkylase activity: very strongly induced

## CCCCC/C=C\C/C=C\CCCCCCCC(=O)O [linoleic, linoleic acid]
CYP76B1 [2]
  metabolite detection for endogenous molecules: No metabolite

## CC/C=C\C/C=C\C/C=C\CCCCCCCC(=O)O [linolenic, linolenic acid]
CYP76B1 [2]
  metabolite detection for endogenous molecules: No metabolite

## CNC(=O)Nc1ccc(C)c(Cl)c1 [monodemethyl-chlortoluron]
CYP76B1 [2]; [4]
  Kcat: 0.767 s⁻¹
  Km: 81 µM
CYP76B1 [2]
  conversion / dealkylation by CYP76B1: actively dealkylated

## CCCCCCCCCCCCCC(=O)O [myristic, myristic acid]
CYP76B1 [2]
  metabolite detection for endogenous molecules: No metabolite

## O=C1OC(=O)c2cccc3cccc1c23 [naphthalic anhydride, 1,8-Naphthalic anhydride]
[1]
  induction of 7-methoxyresorufin O-dealkylase activity: very strongly induced

## O=C1C[C@@H](c2ccc(O)cc2)Oc2cc(O)cc(O)c21 [naringenin]
CYP76B1 [2]
  metabolite detection for endogenous molecules: No metabolite

## C=C(CC[C@@H](C)[C@H]1CC[C@@]2(C)C3=C(CC[C@]12C)[C@@]1(C)CC[C@H](O)[C@@H](C)[C@@H]1CC3)C(C)C [obtusifoliol]
CYP76B1 [2]
  metabolite detection for endogenous molecules: No metabolite

## CCCCCCCC/C=C\CCCCCCCC(=O)O [oleic, oleic acid]
CYP76B1 [2]
  metabolite detection for endogenous molecules: No metabolite

## CCCCCCCCCCCCCCCC(=O)O [palmitic, palmitic acid]
CYP76B1 [2]
  metabolite detection for endogenous molecules: No metabolite

## COc1cc2ccc(=O)oc2cc1O [scopoletin]
CYP76B1 [2]
  metabolite detection for endogenous molecules: No metabolite

## Metoxuron
CYP76B1 [3]; CYP76B1 60 nM
  ΔAmax × 10^−3: 6.1 × 10^−3
CYP76B1 [3]; [6]
  Kd: 117 µM

## mercury
[1]
  induction of 7-methoxyresorufin O-dealkylase activity: very strongly induced
